# Data published in patent US20090239285A1, “TANDEM REAPEAT DNA CONSTRUCTS PRODUCING PROTEINS THAT ATTACK PLANT PATHOGENIC VIRUSES, FUNGI, AND BACTERIA BY DISRUPTING TRANSCRIPTION FACTORS ESSENTIAL FOR REPLICATION THEREOF IN PLANTS” (priority 2008, published 2009).
# “Also recorded” adds a separate entry of the source. Read-outs that look alike come from different tables or passages of the source.
# Columns and labels:
# [1] = test system: SV40 transformed BALB-3T3 cells; conditions: cited from earlier work
# HSV-1 = conditions: in tissue culture and in animals; cited from earlier work
# [2] = test system: virus-infected host cells (HSV-1, HSV-2, HIV-1, Hepatitis C); assay: Fate of virus-infected host cells after treatment; assay type: cell-based; conditions: for fate of virus and host cells: HIV-1, Hepatitis C and numerous other viruses
# Source text: Because DnaJ proteins are zinc finger proteins, these proteins can be neutralized and render non-functional by using picolinic acid and derivatives thereof. DnaJ is essential for protein-related cellular functions in both non-infected normal plant and animal cells. […] In contrast, in virally infected cells, picolinic acid and derivatives thereof have pronounced toxic effects which may include suppression of DnaJ proteins. Virally infected cells were killed by picolinic acid and derivatives thereof by apoptosis. In plant cells, this process is denoted as PCD.
# APOPTOSIS. Apoptosis is a morphological pattern of cell injury and an important mode of cell death (Robbins, Pathological Basis of Disease, 1999, 6th Ed). Apoptosis shares and overlaps common mechanisms with necrosis. […] This form of cell death is designed to eliminate defective, unwanted and damaged cells. For example, the inventors have shown that cells infected by Herpes Simplex Virus 1 (HSV; labialis) and HSV-2 genitalis are destroyed together with the host cells that they infected by apoptosis when exposed to pyridine carboxylates (Fernandez-Pol, Anticancer Res. 2002). […] Thus, the inventors believes that when host cells of animals or plants are infected by pathogenic viruses, unless the treatment is extremely quickly, the host cells and the virus will be destroyed. In fact, host cells defective, mutated, and reservoirs for the novo synthesis of viruses are unwanted host cells and must be eliminated in many instances to allow the survival of the organism.
# [3] = target: T1, Zn(HIV1-F1) zinc finger peptide (N-terminal CCHC region of the HIV-LA1 gag polyprotein) (Human immunodeficiency virus type 1 group M subtype B, UniProt P03348); assay: NMR studies of ligand binding by a zinc finger peptide from HIV-1; conditions: for binding to Zn(HIV1-F1): NMR spectroscopy, titration and NOESY
# T1 construct: corresponds to the N-terminal CCHC region of the HIV-LA1 gag polyprotein (amino acids 390-470); made in house; host or cells: chemical synthesis (synthetic peptide)
# Source text: The interaction between two of the ligands of this invention (Fusaric acid and picolinic acid) and their binding by a Zinc Finger Peptide from HIV-1 containing a zinc finger motif were studied by NMR spectroscopy (FIGS. 16, and 16.1-4).
# The peptide sequence […], corresponds to the N-terminal CCHC region of the HIV-LA1 gag polyprotein (amino acids 390-470). The peptide containing the complex of zinc atom bound to the zinc finger domain of the peptide was named: Zn (HIV1-F1).
# A synthetic oligonucleotide with sequence corresponding to a region of HIV-1 psi-packaging signal, d (ACGCC) was complexed with the peptide (South and Summers, 1993).Fusaric Acid [[…]] was denoted FSR-488 and picolinic acid [2-pyridine carboxylic acid] was denoted PCL-016. Interactions of FSR-488 and PCL-016 with the zinc finger peptide containing Zn [Zn(HIV1-F1)] were studied by NMR spectroscopy. […] Titration experiments with each of the two molecules caused shifts in the ^1H resonances of Zn(HIV1-F1) that are similar to those observed when the peptide binds analogs of its natural substrate. Two dimensional NOE correlation spectroscopy (NOESY) of the solution containing Zn(HIV1-F1) and FSR-488 gave cross peaks at frequencies that are consistent with contacts between FSR-488 and hydrogen nuclei in the hydrophobic cleft of the peptide.
# A sample containing peptide (1.63 mM) and Zn^2+ (2 mM) was titrated with a solution of FSR-488. The experiment was monitored by one dimensional ^1H NMR spectroscopy. Under conditions in which the free zinc in the buffer was minimized, titrations with FSR-488 were conducted. Addition of FSR-488 yielded spectral shifts in the spectrum of the peptide (FIGS. 16, and 16.1-4). […] This experimental finding and conclusions led the inventors to run a second 2D NOESY experiment, this time at the higher concentration of FSR-488.
# The NOESY spectrum at the high concentration of [FSR-488]. was considerable different than that measured at low concentrations of [FSR-488]. […] Interpretations for these assignments are presented in detailed below.
# recombinant MPS-1 = target: T2, recombinant MPS-1 (Homo sapiens, UniProt P42677); assay: Gel shift assay and radioactive Zn65 release from recombinant MPS-1; assay type: biochemical; conditions: for zinc dependent binding of recombinant MPS-1 to DNA: gel shift assays
# T2 construct: made in house
# Source text: MPS-1 is a ubiquitous tumor marker and cell growth stimulator and is described in detail in the inventors' U.S. Pat. No. 5,243,041. MPS-1 has one zinc finger domain of the type CCCC. […] This is detected by a change in the electrophoretic mobility of MPS-1 under non-denaturing conditions. These experiments indicate that picolinic acid and derivatives should remove zinc and denature various types of zinc finger, zinc ring proteins, or other types of ZF motifs whether known or heretofore undiscovered, including animal or plant viral proteins such as nucleocapsid proteins of retrovirus or the nucleocapsid proteins of Geminivirus. Furthermore, the inventors have determined that any chemical compound, whether known or heretofore undiscovered, that will remove the zinc (or other metal) and denature the proteins or that will form a ternary complex (protein-zinc-chelator) can be effective as an antiviral agent, with nontoxic effects, provided that the agent conforms with certain specific structural requirements.
# Arabidopsis thaliana [4] = conditions: in vivo; cited from earlier work
# HSV-2 = conditions: in tissue culture and in animals; cited from earlier work
# [5] = test system: Common ornamental plant cells infected by viruses; assay: Treatment of virus-infected ornamental plants with antiviral agents; conditions: viral strains not determined
# Orobanche ramose = conditions: Arabidopsis thaliana pre-treated with FU; cited from earlier work
# Arabidopsis thaliana [6] = conditions: cited from earlier work
# [7] = test system: iron incorporation into cells; conditions: cited from earlier work
# [8] = test system: normal cells (NRK, BALB 3T3, WI-348); assay: Control of growth by picolinic acid in normal cells; conditions: normal animal cells
# Source text: Cells transformed (made cancerous) by different viruses that contain ZFP respond differently to picolinic acid. […] Numerous transformed cell lines (Fernandez-Pol, Proc. Natl. Acad. Sci. USA, 74:2889-2893, 1977) were exposed to PA and the points of arrest varied. […] Two important facts emerged from studies with transformed cell lines.
# [9] = test system: normal cells (NRK, BALB 3T3, WI-348); conditions: cited from earlier work
# [10] = test system: Rice suspension cells and leaves; conditions: cited from earlier work; for hypersensitive response (HR): rice
# [11] = test system: virally-transformed cells; conditions: further incubation / longer exposure, all transformed cells; cited from earlier work
# NRK cells = conditions: cells treated with picolinic acid; cited from earlier work
# Mammalian rotaviruses = conditions: millimolar concentrations, in vitro; cited from earlier work
# mammalian retroviruses = conditions: millimolar concentrations, in vitro; cited from earlier work
# [12] = test system: tomato spotted wilt virus; conditions: cited from earlier work
smiles,measurement,setting,value
NC(=O)c1cccnc1 [Nicotinamide],effect on cell growth or apoptosis,[1]; at 48h,no effect
same,morphology,[1],flatten
"CCCCc1ccc(C(=O)O)nc1 [Fusaric acid, 5-butyl picolinic acid]",efficacy against viral infection,HSV-1,effective
same,fate of virus and host cells,[2],Death by apoptosis
same,binding to Zn(HIV1-F1),[3],bind Zn(HIV1-F1) at a hydrophobic cleft
same,binding in one dimensional 1H NMR titration,"[3]; peptide 1.63 mM, Zn2+ 2 mM, free zinc minimized",competitively binds both Zn^2+ and the Zn^2+/Peptide complex
same,removal of zinc from CCCC zinc finger of MPS-1,recombinant MPS-1,remove radioactive Zn65; also recorded: remove zinc
same,zinc dependent binding of recombinant MPS-1 to DNA,recombinant MPS-1,inhibit
same,concentration eliciting plant defense responses without toxic effects,Arabidopsis thaliana [4],100 nM
same,concentration reducing root growth and inducing membrane hyperpolarization then depolarization,Arabidopsis thaliana [4],> 500 µM
same,efficacy against viral infection,HSV-2,effective
same,outcome of treatment of virus-infected ornamental plants,[5],positive results
same,germination of parasite,Orobanche ramose,inhibited
"O=C(O)c1ccccn1 [Picolinic acid, 2-pyridine carboxylic acid]","marker defense genes PR-1, PR-2 and PDF1.2",Arabidopsis thaliana [6]; dose-dependent and time dependent,all induced
same,hypersensitive response (HR),Arabidopsis thaliana [6]; including oxidative burst and cell death,induced HR
same,mitochondrial effect,[1]; 3 mM picolinic acid,released cytochrome c
same,incorporation of iron into the cells,[7],inhibits incorporation of iron
same,removal of radioiron from the cells,[7],effectively removes radioiron
same,fate of virus and host cells,[2],Death by apoptosis
same,fate of virally infected cells,[2]; virally infected cells,killed
same,binding to Zn(HIV1-F1),[3],bind Zn(HIV1-F1) at a hydrophobic cleft
same,suppression of DnaJ-like proteins,[8],did not lead to the suppression
same,phase of cell cycle arrest,[9]; Normal rat kidney (NRK) cells,arrested in G1
same,toxicity in normal cells,[9],no toxic effects
same,removal of zinc from CCCC zinc finger of MPS-1,recombinant MPS-1,remove radioactive Zn65; also recorded: remove zinc
same,zinc dependent binding of recombinant MPS-1 to DNA,recombinant MPS-1,inhibit
same,outcome of treatment of virus-infected ornamental plants,[5],positive results
same,cell death,[10]; Rice suspension cells and leaves,apoptosis
same,reactive oxygen species (ROS),"[10]; rice suspension cells, Ca2+-dependent",induced reactive oxygen species (ROS)
same,hypersensitive response (HR),[10],elicits hypersensitive-like response
same,hypersensitive response (HR),[10]; listed as Alpha-picolinic acid,can elicit the hypersensitive response (HR)
same,toxicity in transformed cells,[11],cytotoxicity and cell death; also recorded: cell death by apoptosis
same,potency of prostaglandin E1 in elevating cyclic AMP,NRK cells,two to five times more potent
O=C(O)CN(CCN(CC(=O)O)CC(=O)O)CC(=O)O [EDTA],viral integrity,Mammalian rotaviruses,partial disintegration of the viral membranes
same,"viral integrity, measured by release of reverse transcriptase",mammalian retroviruses,partial disintegration of viral membranes
NC(=O)c1ncn([C@@H]2O[C@H](CO)[C@@H](O)[C@H]2O)n1 [Ribavirin],use against virus,[12]; tomato and tobacco plants,successfully used
same,host in which most efficient,[12]; tomato versus tobacco,most efficient in tomato plants
O=C(O)CN(CCOCCOCCN(CC(=O)O)CC(=O)O)CC(=O)O [EGTA],viral integrity,Mammalian rotaviruses,partial disintegration of the viral membranes
same,"viral integrity, measured by release of reverse transcriptase",mammalian retroviruses,partial disintegration of viral membranes
